{"source": "patent US8710246B2", "about": "“Substituted thiophene pentamers” (Biochromix Newco AB, priority 2008, dated 2014)", "key": {"[1]": {"test": "14 days treatment, biodistribution by HPLC-MS/MS", "assay_type": "in vivo, mice", "experimental": "(§1) Starting at 4 months of age, female hAPPSL mice were treated with vehicle only or p-FTAA in 3 dosages for 14 days. 40 hAPP Tg mice plus 4 reserves allocated to 4 different treatment groups were treated with either vehicle only (control) or with p-FTAA in dosages of 0.1 mg/kg/day, 1 mg/kg/day, or 10 mg/kg/day. Vehicle and T.I.s were administered twice daily intra peritoneal (ip) for 14 days.\nThe biodistribution of p-FTAA in the mice was assessed by determining the parent compound in the right brain hemisphere (without cerebellum), liver, kidney, and plasma of the treated animals. p-FTAA was determined in all the matrices by different bioanalytical methods involving HPLC-MS/MS. Each method was characterized in terms of specificity, linearity, accuracy and precision in order to give reliable results.\nTissue Sampling: After the last treatment, animals were sacrificed. Each treatment group was divided in 3 sampling points resulting in 3-4 animals per sampling point per group (time points below refer to the time point of CSF sampling):\n1) Immediately before last dosing on day 14 (predose)\n2) 0.5 hours after last dosing on day 14\n3) 3 hours after last dosing on day 14\nFrom each animal, CSF, blood, brains, liver, and kidney were collected. Therefore, mice were sedated by standard inhalation anesthesia (Isofluran, Baxter)"}, "hAPPSL transgenic mice": {"tested_on": "hAPPSL transgenic mice", "test": "30 days treatment, Morris Water Maze (MWM) test", "assay_type": "in vivo", "details": "10 mg/kg, ip 30 days, treatment days 24 to 27", "experimental": "as §1, with “at 8” for “at 4”, “for 30” for “for 14”, “days. The Test Item (T.I.) p-FTAA was administered in 3 dosages in Vehicle. 48” for “days. 40”, “mg/kg/day. As an additional control, 12 nTg littermates of the hAPPSL mice (plus 1 reserve) were treated with vehicle only.” for “mg/kg/day.”, “peritoneal (i.p.)” for “peritoneal (ip)”\nThe MWM was performed during 4 days at the end of treatment period (treatment days 24 to 27). […]\nThe escape latency (the time needed to find the hidden platform and therefore to escape from the water), the swimming path (the length to reach the target), the swimming speed and in the probe trial crossings over the former platform position and the abidance in the target quadrant were evaluated. […]\nDescriptive statistical analysis was performed on all evaluated parameters. […] Group differences were calculated by a parametric ANOVA followed by a Bonferroni post test or by a non-parametric Kruskal Wallis ANOVA followed by a Dunn's post test if Gaussian distribution was missing. Learning curves were evaluated by a Two-way ANOVA followed by a Bonferroni post test. […]"}, "amyloid plaques": {"tested_on": "amyloid plaques", "test": "30 days treatment, plaque load by 6E10 IHC and ThioflavinS staining", "assay_type": "in vivo, mice", "details": "for hippocampal plaque load compared to vehicle: t-test", "experimental": "as §1, with “at 8” for “at 4”, “for 30” for “for 14”, “days. The Test Item (T.I.) p-FTAA was administered in 3 dosages in Vehicle. 48” for “days. 40”, “mg/kg/day. As an additional control, 12 nTg littermates of the hAPPSL mice (plus 1 reserve) were treated with vehicle only.” for “mg/kg/day.”, “peritoneal (i.p.)” for “peritoneal (ip)”\nFollowing blood sampling, mice were transcardially perfused with physiological (0.9%) saline. The brains were removed from the skull and the cerebellum was cut off, immediately frozen on dry ice and stored at −80° C. The remaining brain was hemisected and the left hemisphere was weighed, immediately frozen on dry ice and stored at −80° C. until A13 analysis. The right hemisphere was fixed with paraformaldehyde as described in section 4.3.1.\nThe right hemispheres of all Tg mice were fixed by immersion in freshly prepared 4% paraformaldehyde/PBS (pH 7.4) for one hour at room temperature. Thereafter brains were transferred to a 15% sucrose PBS solution for 24 hours to ensure cryoprotection. On the next day, brains were frozen in isopentane and stored at −80° C. until used for histological analysis.\nFrom 6 animals per Tg group, 15 cryo-sections per layer (altogether 5 layers), each 10 μm thick (Leica CM 3050S) were sagittally cut. Brain levels were chosen according to the morphology atlas “The Mouse Brain” from Paxinos and Franklin (2nd edition). The cutting of the five levels started with a random slice corresponding to FIG. 105 (total appearance of the dentate gyrus), then sampling was continued uniformly and systematically, always retaining 15 slices per level in series and discarding 100 μm in between the levels.\nPlaque load was quantified by staining with 6E10 IHC directed against AA1-17 of the human amyloid peptide and ThioflavinS staining against beta-sheet structures in a double incubation. Tissues of all investigated animals were handled uniformly.\nDescriptive statistical analysis was performed on all evaluated parameters. Data were represented as mean±standard error of mean (SEM). Outliers were detected by Grubbs' test and were excluded from statistical analyses.\nValues of the five single measurements (one from each cut level) per animal were integrated to one value per animal (individual mean). Group means were calculated with these integrated values. After Kolmogorov Smirnov normality distribution tests differences were calculated by a parametric ANOVA followed by a Newman Keuls multiple comparison post-hoc test or by a non-parametric Kruskal Wallis ANOVA followed by a Dunn's Multiple comparison test, if Gaussian distribution was missing."}}, "note": "Entries after “also recorded” stand apart in the source; their conditions may differ."}
{"smiles": "O=C(O)Cc1cc(-c2ccc(C(=O)O)s2)sc1-c1ccc(-c2sc(-c3ccc(C(=O)O)s3)cc2CC(=O)O)s1", "note": "[Compound F]", "values": [{"measurement": "systemic exposure", "setting": "[1]; 0.1, 1, 10 mg/kg/day ip for 14 days, plasma", "result": "exposed systemically to p-FTAA at all dose levels"}, {"measurement": "crossing of the blood-brain barrier (brain levels)", "setting": "[1]; after ip administration, 14 days", "result": "crossed the blood-brain barrier"}, {"measurement": "elimination route suggested by tissue levels", "setting": "[1]; ip, 14 days", "result": "urinary excretion is the main elimination route"}, {"measurement": "exposure in the liver and in the kidney", "setting": "[1]; ip, 14 days", "result": "Significant exposure"}, {"measurement": "levels in kidney compared to liver", "setting": "[1]; ip, 14 days", "result": "higher in the kidney compared to the liver"}, {"measurement": "MWM performance in terms of the swimming path", "setting": "hAPPSL transgenic mice", "result": "better performance than any other Tg group"}, {"measurement": "decrease in plaque area", "setting": "amyloid plaques; 1 mg/kg, hippocampus", "result": 40, "unit": "%"}, {"measurement": "hippocampal plaque load compared to vehicle", "setting": "amyloid plaques; 1 mg/kg/day, ThioflavinS, listed as p-FTAA", "result": "Statistical significance; also recorded: significantly lower plaque load"}, {"measurement": "hippocampal plaque load compared to vehicle", "setting": "amyloid plaques; 10 mg/kg/day, ThioflavinS, listed as p-FTAA", "result": "Statistical significance; also recorded: significantly lower plaque load"}, {"measurement": "plaque load in the cortex", "setting": "amyloid plaques; 0.1, 1, 10 mg/kg/day, ThioflavinS, listed as p-FTAA", "result": "without significant changes; also recorded: comparable among groups"}, {"measurement": "reduction of diffuse 6E10 IR surrounding the plaque-cores, dose of strongest effect", "setting": "amyloid plaques; 6E10 IHC", "result": "strongest for the 10 mg/kg p-FTAA treatment"}, {"measurement": "effect on beta-sheet cores, dose of strongest effect", "setting": "amyloid plaques; ThioflavinS", "result": "strongest effect on beta-sheet cores was observed for the 1 mg/kg p-FTAA treatment"}, {"measurement": "plaque load, overall effect of treatment", "setting": "amyloid plaques; mainly hippocampus, 6E10 IHC and ThioflavinS", "result": "reduction of plaque load"}]}
